From ChEMBL document CHEMBL5331114, “Discovery of Pyxinol Amide Derivatives Bearing Amino Acid Residues as Nonsubstrate Allosteric Inhibitors of P-Glycoprotein-Mediated Multidrug Resistance” (J Med Chem, 2023)

Legend:
[1] = Reversal of multidrug resistance in human KBV Cells assessed as increase in PTX-induced cytotoxicity by measuring cell survival rate at 5 uM incubated for 72 hrs in presence of paclitaxel by MTT assay relative to control; assay type: functional; details: read-out: Survival
[2] = Reversal of multidrug resistance in human KBV Cells assessed as reversal fold of paclitaxel IC50 at 10 uM incubated for 72 hrs in presence of paclitaxel by MTT assay; assay type: functional
[3] = biological target: ATP-dependent translocase ABCB1 (Homo sapiens, UniProt P08183); experiment: Negative allosteric modulator activity at human P-gp ATP synthase hydrolytic activity assessed as inhibition of basal Pgp-ATPase activity at 0.5 mM incubated for 60 mins in presence of ATP by Glo-luminescence based microplate reader assay; details: 1 h, 500 µM
[4] = Induction of cell cycle arrest in human KBV cells assessed as accumulation of cells at G1-G0 phase at 5 uM incubated for 24 hrs by flow cytometry analysis (reference value: 62.34 +/- 0.24%); assay type: functional
[5] = Induction of cell cycle arrest in human KBV cells assessed as accumulation of cells at S phase at 5 uM incubated for 24 hrs by flow cytometry analysis (reference value: 12.42 +/- 0.41%); assay type: functional
[6] = Induction of Ptx-mediated cell cycle arrest in human KBV cells assessed as accumulation of cells at G1-G0 phase at 5 uM incubated for 24 hrs in presence of paclitaxel by flow cytometry analysis (Rvb =57.76 +/- 0.78%); assay type: functional
[7] = Induction of Ptx-mediated cell cycle arrest in human KBV cells assessed as accumulation of cells at S phase at 5 uM incubated for 24 hrs in presence of paclitaxel by flow cytometry analysis (Rvb =16.63 +/- 0.4%); assay type: functional
[8] = Induction of Ptx-mediated cell cycle arrest in human KBV cells assessed as accumulation of cells at G1-G0 phase at 10 uM incubated for 24 hrs in presence of paclitaxel by flow cytometry analysis (Rvb =57.76 +/- 0.78%); assay type: functional
[9] = Chemo-sensitizing activity against Ptx-resistance human KBV cells xenografted in BALB/c mouse assessed as inhibition of tumor growth at 20 mg/kg,ip pre-treated with paclitaxel measured after 23 days; assay type: functional; details: 552 h, time 23 day

Sequence of ATP-dependent translocase ABCB1 (P08183 whole entry): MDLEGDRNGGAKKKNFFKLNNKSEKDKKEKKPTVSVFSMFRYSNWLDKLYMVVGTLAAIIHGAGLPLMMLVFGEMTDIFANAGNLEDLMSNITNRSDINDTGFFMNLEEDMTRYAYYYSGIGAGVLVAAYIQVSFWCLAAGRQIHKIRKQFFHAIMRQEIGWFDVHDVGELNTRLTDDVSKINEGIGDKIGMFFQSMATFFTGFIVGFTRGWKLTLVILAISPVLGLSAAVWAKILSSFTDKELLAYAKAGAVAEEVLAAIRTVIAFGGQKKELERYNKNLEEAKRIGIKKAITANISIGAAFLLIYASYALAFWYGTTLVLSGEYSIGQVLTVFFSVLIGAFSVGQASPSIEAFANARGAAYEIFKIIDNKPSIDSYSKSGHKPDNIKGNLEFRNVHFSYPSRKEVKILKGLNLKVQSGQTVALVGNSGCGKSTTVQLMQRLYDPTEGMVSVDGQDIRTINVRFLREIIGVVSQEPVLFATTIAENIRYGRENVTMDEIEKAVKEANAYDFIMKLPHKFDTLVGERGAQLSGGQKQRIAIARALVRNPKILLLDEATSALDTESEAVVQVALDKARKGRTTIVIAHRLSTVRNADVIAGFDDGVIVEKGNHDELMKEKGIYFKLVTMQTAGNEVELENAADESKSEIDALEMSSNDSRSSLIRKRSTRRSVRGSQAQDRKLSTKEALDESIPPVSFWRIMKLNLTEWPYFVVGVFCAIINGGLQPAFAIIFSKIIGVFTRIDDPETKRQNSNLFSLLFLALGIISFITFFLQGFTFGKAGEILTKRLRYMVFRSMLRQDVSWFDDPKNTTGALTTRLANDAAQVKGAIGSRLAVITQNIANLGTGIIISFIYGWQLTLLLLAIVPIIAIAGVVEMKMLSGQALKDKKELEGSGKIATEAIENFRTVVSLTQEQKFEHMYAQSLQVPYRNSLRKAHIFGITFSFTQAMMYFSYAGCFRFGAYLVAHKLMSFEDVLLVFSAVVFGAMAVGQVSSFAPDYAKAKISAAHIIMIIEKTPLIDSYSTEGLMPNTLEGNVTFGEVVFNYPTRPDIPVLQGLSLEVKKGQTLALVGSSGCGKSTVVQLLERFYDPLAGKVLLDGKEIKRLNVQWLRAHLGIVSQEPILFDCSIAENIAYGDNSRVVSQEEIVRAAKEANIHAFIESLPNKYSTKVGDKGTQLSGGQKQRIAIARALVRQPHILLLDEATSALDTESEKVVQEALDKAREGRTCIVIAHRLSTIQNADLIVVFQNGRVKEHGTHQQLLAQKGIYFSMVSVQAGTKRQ

In the case of `CC(C)(O)[C@H]1CC[C@@](C)([C@H]2CC[C@]3(C)[C@@H]2[C@H](O)C[C@@H]2[C@@]4(C)CC[C@H](NC(=O)[C@@H]5CCCN5)C(C)(C)[C@@H]4CC[C@]23C)O1`, the viability at 5 µM [1] is reported as 34%, the “fold change (FC)” value [2] is reported as 67 and the “inhibition (INH)” value [3] is reported as “Not Active”. For the same molecule, the Activity [4] was 59.58%, the Activity [5] was 13.38% and the Activity [6] was 45.93%. It also gave an Activity [7] of 22%, an Activity [8] of 36.65% and an inhibition in vivo at 20 mg/kg [9] of 58.1%.
